Reference: PubChem BioAssay (NCI)
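Cultured in 96-well plates, cells were exposed to test compound for 48 hours across five concentrations. Abbreviation: GI50, concentration required for 50% inhibition of growth. TGI: total growth inhibition.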

Key:
Test in all cases: growth of human tumour cells (NCI), 48 h
[1] = test system: NCI-H226 lung
[2] = test system: SK-OV-3 ovarian
[3] = test system: HL-60(TB) leukemia
[4] = test system: CCRF-CEM leukemia
[5] = test system: U251 CNS
[6] = test system: M14 melanoma
[7] = test system: UACC-257 melanoma
[8] = test system: SF-295 CNS
[9] = test system: OVCAR-4 ovarian
[10] = test system: CAKI-1 renal

Compound	TGI [1]	TGI [2]	TGI [3]	TGI [4]	TGI [5]	TGI [6]	TGI [7]	TGI [8]	TGI [9]	TGI [10]	GI50 [1]	GI50 [2]	GI50 [3]	GI50 [4]	GI50 [5]	GI50 [6]	GI50 [7]	GI50 [8]	GI50 [9]	GI50 [10]
O=c1cc(-c2ccccc2)oc2cc(OCCCOc3ccc4c(=O)cc(-c5ccccc5)oc4c3)ccc12	> 100 µM	> 100 µM	> 100 µM	> 100 µM	> 100 µM	> 100 µM	> 100 µM	> 100 µM	> 100 µM	> 100 µM	–	–	–	–	–	–	–	–	–	–
Cc1c2c(nn1-c1ccc(S(=O)(=O)/N=C3\SCCC(=O)N3c3ccccc3)cc1)-c1ccccc1CC2	> 100 µM	> 100 µM	> 100 µM	> 100 µM	> 100 µM	> 100 µM	> 100 µM	> 100 µM	> 100 µM	> 100 µM	84.4 µM	> 100 µM	> 100 µM	> 100 µM	> 100 µM	> 100 µM	> 100 µM	75.7 µM	> 100 µM	> 100 µM
Nc1ncnc2c1nnn2C1OC(CO)C(O)C1O (configuration not stated)	12 µM	1.95 µM	2.16 µM	27.9 µM	37.8 µM	4.91 µM	10.9 µM	7.59 µM	8.48 µM	2.88 µM	–	–	–	–	–	0.261 µM	–	–	–	–
Cc1cc2c(cc1Cl)SC(N(N(C)C)S(=O)(=O)c1ccc(Cl)cc1)=NS2(=O)=O	89.9 µM	> 100 µM	89.8 µM	> 100 µM	> 100 µM	> 100 µM	88.5 µM	> 100 µM	96.4 µM	66.6 µM	30.5 µM	33.8 µM	35.2 µM	3.29 µM	26.3 µM	27.8 µM	23.8 µM	30.3 µM	23.4 µM	30.5 µM
CCOC(=O)c1cc2nc3ccccc3c(=O)n2c2ccccc12	> 10 µM	> 10 µM	> 10 µM	> 10 µM	> 10 µM	> 10 µM	> 10 µM	> 10 µM	> 10 µM	> 10 µM	–	–	–	–	–	–	–	–	–	–
O=C(/C=C/c1ccc(Cl)cc1)c1ccc(Nc2ccnc3cc(Cl)ccc23)cc1	> 100 µM	> 100 µM	59.6 µM	> 100 µM	> 100 µM	> 100 µM	> 100 µM	> 48.8 µM	> 100 µM	> 100 µM	> 100 µM	> 100 µM	9.16 µM	7.3 µM	28.8 µM	26.8 µM	> 100 µM	–	> 100 µM	–
CCN(CC)c1ccc(-c2cc(-c3cc(OC)c(OC)c(OC)c3)nc(N3CCOCC3)c2C#N)cc1	42.2 µM	> 100 µM	6.08 µM	> 44.5 µM	> 100 µM	1.33 µM	> 100 µM	3.98 µM	> 100 µM	> 53.2 µM	2.34 µM	3.22 µM	0.463 µM	0.611 µM	2.48 µM	0.292 µM	2.57 µM	0.809 µM	7.33 µM	0.366 µM
CCOC(=O)CC(=O)ON(C)C(C)=O	> 100 µM	> 100 µM	> 100 µM	> 100 µM	> 100 µM	> 100 µM	> 100 µM	> 100 µM	> 100 µM	> 100 µM	–	–	–	–	–	–	–	–	–	–
N#CC(C#N)=CNC(N)=S	> 100 µM	> 100 µM	> 100 µM	> 100 µM	> 100 µM	> 100 µM	> 100 µM	> 100 µM	> 100 µM	> 100 µM	–	–	–	–	–	–	–	–	–	–
Fc1cc2[nH]ncc2c2c3c(c(-c4cn[nH]c4)nc12)CCCC3	5.85 µM	1.24 µM	5.53 µM	> 100 µM	13.4 µM	4.54 µM	5.69 µM	6.44 µM	8.14 µM	7.08 µM	1.28 µM	0.287 µM	1.81 µM	1.13 µM	0.55 µM	0.541 µM	1.72 µM	1.44 µM	1.69 µM	0.398 µM
C=C1NC(=O)C(C(C)CC)NC(=O)C2CSCC(NC(=O)CCC(=O)O)C(=O)NC(Cc3ccccc3)C(=O)NC(C)C(=O)NC(CC(C)CC)C(=O)NC(C(=O)NC(Cc3ccccc3)C(=O)N3CCCC3C(=O)N2)C(C)OC(=O)C(CO)NC(=O)C(C(O)COC)N(C)C(=O)C(C(C)C)NC(=O)C(CC(C)CC)NC1=O (configuration not stated)	> 6 µM	> 6 µM	–	> 6 µM	> 6 µM	0.0391 µM	> 6 µM	> 6 µM	> 6 µM	> 6 µM	0.117 µM	0.0243 µM	0.0211 µM	0.0137 µM	0.0101 µM	0.00878 µM	> 6 µM	0.00594 µM	0.339 µM	0.0246 µM
CC[C@H](Nc1ncnc2nc[nH]c12)c1oc2ccccc2c(=O)c1-c1cccc(F)c1	> 100 µM	> 100 µM	42.5 µM	> 100 µM	> 100 µM	> 100 µM	> 100 µM	> 100 µM	> 100 µM	> 100 µM	30.3 µM	24.1 µM	11 µM	23.3 µM	32.2 µM	28.1 µM	25.7 µM	18.4 µM	23.1 µM	14.7 µM
CCN1c2ccccc2C(C(SC)S(=O)(=O)c2ccc(C)cc2)c2c1[nH]c(=O)n(C)c2=O (configuration not stated)	> 100 µM	> 100 µM	> 100 µM	> 100 µM	> 100 µM	–	> 100 µM	> 100 µM	> 100 µM	> 100 µM	–	–	–	–	–	–	–	–	–	–
CCc1cc(Cc2cc(CC)c(NC(=O)C(=O)Cc3ccccn3)c(CC)c2Cl)c(Cl)c(CC)c1NC(=O)C(=O)Cc1ccccn1	> 100 µM	> 100 µM	> 100 µM	> 100 µM	46.1 µM	> 100 µM	> 100 µM	> 100 µM	> 100 µM	> 100 µM	–	–	–	–	–	–	–	–	–	–
N=Nc1c(OC(=O)Nc2cccc(Cl)c2)[nH]c2ccccc12	34.5 µM	21.2 µM	30.9 µM	21.9 µM	18.9 µM	18.6 µM	26.7 µM	5.99 µM	19.6 µM	15.2 µM	–	–	–	–	–	–	–	–	–	–
